Test results as given in patent US6436954B1, “Benzoquinolizidine and benzoindolizidine derivatives and therapeutic uses thereof” (priority 1998, dated 2002).

What was measured:
acetylcholinesterase = biological target: T1, acetylcholinesterase (Rattus norvegicus, UniProt P37136); assay: Acetylcholinesterase activity in rat brain homogenate (Ellman spectrophotometric method); assay type: biochemical, Wistar rat; details: rat brain enzyme preparation
T1 construct: Wistar rat brain was homogenized in 10% (w/v) of ice-cold Tris-buffered saline; from tissue; host or cells: Wistar rat brain homogenate, 10,000 g supernatant
T1 sequence (P37136 32-614): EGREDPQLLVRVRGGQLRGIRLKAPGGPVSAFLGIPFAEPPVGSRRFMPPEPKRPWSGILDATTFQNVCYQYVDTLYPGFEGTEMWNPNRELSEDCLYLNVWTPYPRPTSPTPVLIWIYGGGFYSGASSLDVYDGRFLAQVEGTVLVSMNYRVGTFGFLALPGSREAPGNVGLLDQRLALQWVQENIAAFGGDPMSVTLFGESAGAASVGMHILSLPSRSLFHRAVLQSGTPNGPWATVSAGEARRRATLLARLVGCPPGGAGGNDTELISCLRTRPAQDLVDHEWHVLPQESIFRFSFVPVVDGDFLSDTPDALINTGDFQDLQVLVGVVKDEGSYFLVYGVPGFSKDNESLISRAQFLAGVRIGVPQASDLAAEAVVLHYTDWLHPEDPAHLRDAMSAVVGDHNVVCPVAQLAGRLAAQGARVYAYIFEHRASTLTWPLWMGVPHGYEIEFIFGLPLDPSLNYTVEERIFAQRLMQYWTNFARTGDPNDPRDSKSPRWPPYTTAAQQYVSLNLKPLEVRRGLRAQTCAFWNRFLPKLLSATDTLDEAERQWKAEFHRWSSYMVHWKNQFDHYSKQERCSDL
Experimental: Wistar rat brain was homogenized in 10% (w/v) of ice-cold Tris-buffered saline which comprised 10 mM Tris HCl, pH 7.4, 1 mM ethylenediaminetetraacetic acid, 0.9% (w/v) bovine serum albumin. Homogenates were centrifuged at 10,000 g for 10 minutes at 4° C. Supernatants were decanted and stored in aliquots at −70° C. until required.
Briefly, the assay was carried out at room temperature using 0.1 M phosphate buffer, pH 8.0, containing 0.075 M acetylthiocholine iodide and 0.01 M 5,5-dithio-bis-(2-nitrobenzoic acid) (DTNB). The DTNB was prepared in 0.1 M phosphate buffer, pH 7.0, which contained 0.018 M sodium bicarbonate to ensure stability. The reaction was started by the addition of 100 μg of enzyme preparation to a final assay volume of 3.2 ml, and mixed thoroughly. Progress was monitored spectrophotometrically at 412 nm for a continuous period. A blank was run in conjunction with each assay and differed from the test only in that it contained phosphate buffer in place of acetylthiocholine iodide. AchE was assayed in the presence of ethopropazine, which was prepared in ethanol. […] BCHE was measured in the presence of 10^−5 M 1,5-bis-(4-trimethylammoniophenyl)pentan-3-one dibromide (62C47), a specific acetylcholinesterase inhibitor which was added to a final concentration of 10^−5 M. All solutions were freshly prepared and protected from light. Acetylthiocholine, DTNB, 62C47 and ethopropazine were obtained from Sigma Chemical Co., St. Louis, Mo. All other reagents were of the highest grade available from routine suppliers.
Results are expressed as mM acetylthiocholine hydrolysed/100 ug protein/min in Table 1. […] To facilitate comparison between compounds requiring different solubilization vehicles, the relevant results are expressed as percent of the control value in Table 2.

[1] = test system: scopolamine-impaired passive avoidance learning; assay: Reversal of scopolamine-induced amnesia of a passive-avoidance response; assay type: in vivo, Wistar rats; details: mean ± SEM (n)
Experimental: (b) Reversal of Scopolamine-induced Amnesia of a Passive-avoidance Response.
Postnatal day 80 male Wistar rats (300-350 g) were obtained from the Biomedical Facility, University College, Dublin. These were housed singly in a 12 h light/dark cycle with food and water available ad libitum. Animals employed for neurobehavioral studies were maintained and handled in the test environment for 3 days prior to the commencement of studies. All experimental procedures were approved by the Review Committee of the Biomedical Facility of University College, Dublin and were carried out by individuals who held the appropriate license issued by the Ministry of Health.
Animals were trained in a one-trial, step-through, light-dark passive avoidance paradigm. The apparatus consisted of a box measuring 300 mm wide×260 mm deep×270 mm high. The front and top were transparent, allowing observation of behavior inside the apparatus. The box was divided into two compartments, separated by a central shutter which contained a small opening 50 mm wide and 75 mm high. The smaller of the compartments measured 90 mm in width and contained a low power (6 V V) illumination source—the light compartment. The large compartment measured 210 mm in width and was not illuminated. The floor of the training apparatus consisted of a grid of stainless steel bars which could deliver a remotely-controlled, scrambled shock (0.75 mA every 0.5 msec, 5 sec duration) when the animal entered the dark chamber with all four paws. The animals were tested for recall of this inhibitory stimulus prior to sacrifice by placing them into the light compartment and noting their latency to enter the dark compartment. A criterion period of 300 sec was used. The results of this protocol, after administration of saline, scopolamine, test compound, and scopolaine plus test compound, are presented in Table 3.

[2] = test compound 30 mg/kg + scopolamine 0.8 mg/kg
[3] = test compound 10 mg/kg + scopolamine 0.8 mg/kg
[4] = test compound 10 mg/kg alone, 10 mg/kg

Structure (SMILES) | Acetylcholinesterase activity in the presence of compound (acetylcholinesterase; compound concentration 100 nM) | Acetylcholinesterase activity in the presence of compound (acetylcholinesterase; compound concentration 10 μM) | Acetylcholinesterase activity in the presence of compound (acetylcholinesterase; compound concentration 1.0 mM) | passive avoidance latency, Test cpd. + scopolamine [1, 2] | passive avoidance latency, Test cpd. + scopolamine [1, 3] | further results
O[C@@H]1c2ccccc2CN2CCCC[C@H]12 (relative stereo) [Example 18b, trans-1,3,4,6,11,11a-hexahydro-2H-benzo[b]quinolizidin-11-ol] | 2.50 mM substrate hydrolyzed/min/100 μg protein | 1.90 mM substrate hydrolyzed/min/100 μg protein | 1.00 mM substrate hydrolyzed/min/100 μg protein |  |  | 
COc1ccc2c(c1)[C@@H](NCc1ccccc1)[C@H]1CCCCN1C2 (relative stereo) [Example 14, trans-N-Benzyl-9-methoxy-1,3,4,6,11,11a-hexahydro-11-amino-2H benzo[b]quinolizine] |  |  |  | 211 ± 238 (3) seconds |  | 
CN[C@@H]1c2ccccc2CN2CCCC[C@H]12 (relative stereo) [Example 9, trans-N-Methyl-1,3,4,6,11,11a-hexahydro-11-amino-2H-benzo[b]quinolizine] |  | 2.00 mM substrate hydrolyzed/min/100 μg protein | 0.30 mM substrate hydrolyzed/min/100 μg protein | 258 ± 156 (5) seconds | 104 ± 48 (12) seconds | passive avoidance latency, Test cpd. alone [1, 4]: 459 ± 53 (12) seconds; passive avoidance latency, Test cpd. alone ([1]; test compound 30 mg/kg alone): 529 ± 78 (6) seconds; passive avoidance latency, Test cpd. + scopolamine ([1]; test compound 45 mg/kg + scopolamine 0.8 mg/kg): 322 ± 112 (8) seconds; passive avoidance latency, Test cpd. alone ([1]; test compound 45 mg/kg alone): 340 ± 146 (5) seconds
O[C@@H]1c2ccccc2CN2CCCC[C@@H]12 (relative stereo) [Example 18a, cis-1,3,4,6,11,11a-hexahydro-2H-benzo[b]quinolizidin-11-ol] | 2.30 mM substrate hydrolyzed/min/100 μg protein | 2.10 mM substrate hydrolyzed/min/100 μg protein | 1.70 mM substrate hydrolyzed/min/100 μg protein |  |  | 
CN[C@@H]1c2cc(OC)ccc2CN2CCCC[C@H]12 (relative stereo) [Example 10, trans-N-Methyl-9-methoxy-1,3,4,6,11,11a-hexahydro11-amino-2H-benzo[b]quinolizine] |  |  |  |  | 054 ± 20 (6) seconds | passive avoidance latency, Test cpd. alone ([1]; test compound 10 mg/kg alone): 592 ± 9 (6) seconds
O[C@@H]1c2ccccc2CN2CCC[C@@H]12 (relative stereo) |  |  |  |  |  | melting point: 131 to 133 °C
CC(=O)O[C@@H]1c2ccccc2CN2CCCC[C@@H]12 (relative stereo) [Example 19, O-acetyl-cis-1,3,4,6,11,11a-hexahydro-2H-benzo[b]quinolizidin-11-ol] | 2.20 mM substrate hydrolyzed/min/100 μg protein | 1.90 mM substrate hydrolyzed/min/100 μg protein | 0.70 mM substrate hydrolyzed/min/100 μg protein |  |  | 
c1ccc(CN[C@@H]2c3ccccc3CN3CCCC[C@H]23)cc1 (relative stereo) [Example 13, trans-N-Benzyl-1,3,4,6,11,11a-hexahydro-11-amino-2H-benzo[b]quinolizine] | 2.30 mM substrate hydrolyzed/min/100 μg protein | 1.90 mM substrate hydrolyzed/min/100 μg protein | 0.20 mM substrate hydrolyzed/min/100 μg protein |  | 048 ± 14 (5) seconds | passive avoidance latency, Test cpd. alone ([1]; test compound 10 mg/kg alone): 410 ± 115 (6) seconds
CN[C@@H]1c2ccccc2CN2CCC[C@@H]12 (relative stereo) [Example 34a, cis-10-methylamino-1,2,3,5,10,10a-hexahydropyrrolo[1,2-b]isoquinoline] |  |  |  | 534 ± 76 (3) seconds |  | passive avoidance latency, Test cpd. alone ([1]; test compound 30 mg/kg alone): 559 ± 50 (3) seconds
CN[C@@H]1c2ccccc2CN2C(=O)CC[C@@H]12 (relative stereo) [Example 26b, cis-10Methylamino-1,2,3,5,10,10a-hexahydropyrrolo[1,2b]isoquinolin-3-one] |  |  |  | 182 ± 163 (4) seconds |  | passive avoidance latency, Test cpd. alone ([1]; test compound 30 mg/kg alone): 600 (3) seconds
N[C@@H]1c2ccccc2CN2CCCC[C@H]12 (relative stereo) [Example 15, trans-1,3,4,6,11,11a-Hexahydro-11-amino-2H-benzo[b]quinolizine] | 2.20 mM substrate hydrolyzed/min/100 μg protein | 2.00 mM substrate hydrolyzed/min/100 μg protein | 0.20 mM substrate hydrolyzed/min/100 μg protein | 132 ± 103 (6) seconds | 148 ± 101 (5) seconds | passive avoidance latency, Test cpd. alone ([1]; test compound 10 mg/kg alone): 292 ± 92 (6) seconds; passive avoidance latency, Test cpd. alone ([1]; test compound 30 mg/kg alone): 188 ± 102 (6) seconds
CN[C@@H]1c2ccccc2CN2CCCC[C@@H]12 (relative stereo) [Example 17, cis-N-methyl-1,3,4,6,11,11a-hexahydro-2H-benzo[b]quinolizidin-11-amine] | 2.00 mM substrate hydrolyzed/min/100 μg protein | 1.90 mM substrate hydrolyzed/min/100 μg protein | 0.80 mM substrate hydrolyzed/min/100 μg protein |  |  | 
CN[C@@H]1c2ccccc2CN2CCCC[C@H]12 (relative stereo) [Example 9a, trans-N-Methyl-1,3,4,6,11,11a-hexahydro-11-amino-2H-benzo[b]quinolizine] |  |  |  |  | 216 ± 260 (2) seconds | passive avoidance latency, Test cpd. alone [1, 4]: 328 ± 177 (3) seconds
CC(=O)O[C@@H]1c2ccccc2CN2CCCC[C@H]12 (relative stereo) [Example 20, O-acetyl-trans-1,3,4,6,11,11a-hexahydro-2H-benzo[b]quinolizidin-11-ol] | 2.10 mM substrate hydrolyzed/min/100 μg protein | 1.40 mM substrate hydrolyzed/min/100 μg protein | 0.30 mM substrate hydrolyzed/min/100 μg protein |  |  | 
